Data: US6046231A, “Use of 4'-bromoflavone in a cancer chemopreventative composition and method” (The Board of Trustees of the University of Illinois, priority 1999, dated 2000)
Entries after “also recorded” stand apart in the source; their conditions may differ.

Experiments:
quinone reductase (QR) = assay: QR activity in rat tissues after dietary administration; type: in vivo, Sprague Dawley rat
Method: Analysis of Quinone Reductase Activity and Glutathione Level in Rat Tissues. Spraque Dawley rats (n=10) at 43 days of age were placed on an appropriate experimental diet (5000, 2500, 1250, 625, and 312.5 mg/kg diet of 4'-BF) for three weeks. After three weeks, animals were sacrificed by carbon dioxide (CO2) asphyxiation. The livers, mammary glands, colons, stomachs, and lungs were collected, rinsed with saline, and frozen in liquid nitrogen and stored at -80° C. until enzyme activities were determined. Individual tissues (except mammary glands) were homogenized in 0.25 M sucrose and centrifuged at 15,000×g for 30 min at 4° C. The supernatant fluids were collected, 20% volume of 0.1 M CaCl2 in 0.25 M sucrose were added. After incubation at 0° C. for 30 min and further centrifuging at 15,000×g for 30 min at 4° C., a clear cytosolic fraction was used for enzyme assay. Mammary glands of each animal were pooled, homogenized in 1 ml ice-cold 0.1 M phosphate buffer pH 6.5 and centrifuged (15,000×g, 30 min at 4° C.), a clear supernatant suitable for enzyme assay resulted. Dicumarol-sensitive QR activity was measured in duplicate in 50 μl of suitable dilution of the tissue supernatant as described for the cellular system. GSH levels were assayed in duplicate using 96-well plates. […] The plates were shaken for 5-10 min and the extent of 2-nitro-5-thiobenzoic acid formation was monitored at 405 nm. A GSH standard curve was used to calculate the GSH content. GSH levels were expressed as nmol/mg protein.
Induction of Quinone Reductase Activity and Glutathione Level in Rat Tissues. Based on the results in cell cultures, 4'-BF was further evaluated for its inducing potency in rat liver, mammary gland, colon, stomach, and lung. […] The concentration of 4'-BF for maximum induction of GSH was about 1250 to about 2500 mg/kg diet, but varied for different organ sites.

GST Yb (μ class) = assay: Western blot of GST Yb (μ-type) expression in H4IIE cells; type: cell-based, rat; settings: for GST Yb (μ) induction: H4IIE cells
Method: Western Blot Analysis Glutathione S-transferase Expression. Cultured H4IIE rat hepatoma cells were treated with test agent with various concentrations or various time points. […] Cells were harvested using SDS lysis buffer (20 mM Tris-Cl, pH 6.8, containing 0.4% SDS (w/v), 4% glycerol, 0.24 M β-mercaptoethanol, and 0.5% bromphenol) and the lysates were boiled for 5 minutes, then stored at -20° C. An aliquot of lysate was used for protein determination using a bicichoninic acid protein assay kit with BSA as a standard. Equivalent amounts of protein were electrophoresed by SDS-PAGE on precast 12.5% Tris-glycine acrylamide gels (Novex, San Diego, Calif.), then transferred to polyvinylidene difluoride (PDVF) membranes. Nonspecific binding sites were blocked with 10% nonfat dry milk and blotting was performed with goat polyclonal antirat GSTYa (α class) IgG or antirat, GSTYb (μ class) IgG and analyzed by alkaline phosphatase-conjugated antigoat IgG secondary antibody (Oxford Biomed Research, Inc.) and quantified using an AP 20 Alkaline Phosphatase Kit detection system (Oxford Biomed Research, Inc.).
Induction of Expression of Glutathione S-transferase Ya (α-type) and Yb (μ-type) in Cell Cultures. […] To date, the superfamily of mammalian cytosolic GST isozymes has been defined genetically to consist of four classes; α, μ, π, and θ, which differ in tissue-specificexpression and distribution, as well as substrate specificity. […] Cultured H4IIE cells were treated either with 10 μM of 4'-BF (FIG. 7B) or sulforaphane for 0, 2, 4, 8, 16, 24, and 48 hours for a time-dependent study, or with 0.16, 0.8, 4, 10, 20, and 50 μM of 4'-BF (FIG. 7A) or sulforaphane for 24 hr for a dose-dependent study (FIG. 7A). The expressions of two major detoxification isoforms of GSTs (GST Ya: α-type, and GST Yb: μ-type) mediated by 4'-BF or sulforaphane were investigated in H4EII rat hepatoma cells using Western blotting technique.

[1] = system: QR XRE-CAT construct, HepG2 cells; assay: CAT expression in HepG2 cells transfected with QR XRE-CAT; type: cell-based, human cells; rat QR gene; settings: 10 μM, 48 h; listed as 4'-BF
Method: Transcient Transfection Gene Expression Assay. Cultured HepG2 human hepatoma cells were transfected with three plasmid constructs (PDTD-1697CAT, XRE-CAT, ARE-CAT) containing various portions of the 5'-region of the QR gene fused to the CAT gene using the calcium phosphate precipitation method (J. Sambrook et al., Molecular cloning: A Laboratory Handbook, Ed. Chris Nolan, CHS Laboratory Press, 1989). After 4 hours of transfection, the cells were treated with 10% glycerol for 3 minutes and rinsed with PBS and switched to MEM, containing 100 units/ml penicillin G sodium, 100 units/ml streptomycin sulfate, nonessential amino acids, and 1 mM sodium pyruvate (Life Technologies Inc.) supplemented with 10% fetal bovine serum for 12-16 hours recovery. Then, test agents were added to the cells. After 48 hours of treatment with the test agents, cells were harvested with lysis buffer (Boehringer Mannheim Biochemical) and CAT protein expressions were assessed using a CAT ELISA kit (Boehringer Mannheim Biochemical). CAT enzyme expression was normalized for the protein content of each sample. All data were expressed as mean +/- SD. Means were compared using Student's t test with n=4.
This was further investigated in transient transfection experiments wherein human hepatoma cells were transfected with DNA constructs containing various portions of the 5' upstream promoter region of the QR gene linked to the CAT reporter gene by using the calcium phosphate precipitation method. Construct pDTD-1097CAT contains elements of the rat QR gene connected to the CAT construct gene. […]
In particular, FIG. 1 illustrates quantitation of CAT expression in HepG2 cells transfected with QR-CAT constructs. […] CAT expression (ng CAT/mg protein) was determined using a CAT ELISA, and the ratio of CAT expression between treated and control cells was calculated (ratio=treated/control).

O=c1cc(-c2ccc(Br)cc2)oc2ccccc12 [4'-Bromoflavone]
QR activity induction, colon (quinone reductase (QR); colon, 312.5-5000 mg/kg diet, 3 weeks): 2.09-4.81 fold
QR activity in rat tissues (quinone reductase (QR); liver, mammary gland, colon, stomach, lung, short-term dietary, P<0.0001): significantly increased
QR activity induction, liver (quinone reductase (QR); liver, 312.5-5000 mg/kg diet, 3 weeks): 2.22-7.60 fold
QR activity induction, lung (quinone reductase (QR); lung, 312.5-5000 mg/kg diet, 3 weeks): 2.18-5.25 fold
QR activity induction, mammary gland (quinone reductase (QR); mammary gland, 312.5-5000 mg/kg diet, 3 weeks): 1.59-5.52 fold
QR activity induction, stomach (quinone reductase (QR); stomach, 312.5-5000 mg/kg diet, 3 weeks): 1.97-3.42 fold
maximum induction time, GST Yb (GST Yb (μ class); 10 μM, 0-48 h): 16 to 24 h
maximum induction concentration, GST Yb (GST Yb (μ class); 0.16-50 μM, 24 h): 10 to 20 µM
GST Yb (μ) induction (GST Yb (μ class)): effectively induced
GST Yb (μ) induction (GST Yb (μ class); listed as 4'-BF): induced by 4'-BF in a time, dose-dependent manner
CAT expression, QR XRE-CAT [1]: Significant induction; also recorded: significantly (P<0.0001, students t test with n=4) induced
